Patent US20250248975
Read-outs that look alike come from different tables or passages of the source.

Methyl (2R)-3-[3-[21-(benzenesulfonyl)-9,9,24,30-tetrafluoro-3,6-dimethyl-)1-oxa-26-thia-3,4,15,21,32,33-hexazahexacyclo[25.3.1.12,5.112,15.017,25.018,22]tritriaconta-1(31),2(33),4,12(32),13,17,19,22,24,27,29-undecaen-6-yl]phenyl]-2-methylpropanoate
ring closure, isolated yield (other bond, 19-membered ring, CMBP, toluene, 150.0 °C, 3 steps): 11.6%

CCOC(=O)C(C)Cc1cccc(C2(C)CCC(C)(C)COc3cn(nn3)Cc3c(c(F)cc4c3ccn4S(=O)(=O)c3ccccc3)Oc3ccc(F)c(c3)-c3nc2nn3C)c1 (centres unmarked)
ring closure, isolated yield (from CCOC(=O)C(C)Cc1cccc(C(C)(CCC(C)(C)CO)c2nc(-c3cc(Oc4c(F)cc5c(ccn5S(=O)(=O)c5ccccc5)c4Cn4cc(O)nn4)ccc3F)n(C)n2)c1, ether bond, 19-membered ring, CMBP, toluene, 11.3 mM, 150.0 °C, 1.0 h): 50%

Cn1nc2nc1-c1cc(ccc1F)Oc1c(F)cc3c(ccn3S(=O)(=O)c3ccccc3)c1Cn1cc(cn1)C(C)(C)C/C=C\CC2(C)c1cccc(Br)c1 (centres unmarked)
ring closure, isolated yield (rcm bond, 19-membered ring, Grubbs II, toluene, 100.0 °C): 62%

CC1(c2cccc(I)c2)CCCC(O)CNC(=O)/C=C/c2c(c(F)cc3[nH]ccc23)Oc2ccc(F)c(c2)-c2ncc1[nH]2 (centres unmarked)
ring closure, isolated yield (from CC(CCCC(O)CN)(c1cccc(I)c1)c1cnc(-c2cc(Oc3c(F)cc4[nH]ccc4c3/C=C/C(=O)O)ccc2F)[nH]1, amide bond, 19-membered ring, EDC.HCl/HOBt, THF/DMF 10:1, 102.0 mM, 18.0 h): 40%

Cn1cc2nc1-c1cccc(c1)Oc1c(F)cc3[nH]ccc3c1Cn1cc(nn1)C(C)(C)OCCCC2(C)c1cccc(Br)c1 (centres unmarked)
ring closure, isolated yield (from C#CC(C)(C)OCCCC(C)(c1cccc(Br)c1)c1cn(C)c(-c2cccc(Oc3c(F)cc4[nH]ccc4c3CN=[N+]=[N-])c2)n1, triazole bond, 19-membered ring, Cu(MeCN)4BF4/TBTA, DCM, 3.2 mM, 45.0 °C): 60%

COC(=O)/C=C/c1cccc(C2(C)CCCC#Cc3nc(cs3)Cc3c(c(F)cc4c3ccn4S(=O)(=O)c3ccc(C)cc3)Oc3ccc(F)c(c3)-c3ncc2[nH]3)c1 (centres unmarked)
ring closure, isolated yield (from C#CCCCC(C)(c1cccc(/C=C/C(=O)OC)c1)c1cnc(-c2cc(Oc3c(F)cc4c(ccn4S(=O)(=O)c4ccc(C)cc4)c3Cc3csc(I)n3)ccc2F)[nH]1, cc_pd bond, 19-membered ring, PdCl2(PPh3)2/CuI/TEA, DMF, 10.6 mM, 60.0 °C): 15%

Cn1nc2nc1-c1cc(ccn1)Oc1c(F)cc3[nH]ccc3c1Cn1cc(nn1)C(C)(C)CCCC[C@]2(C)c1cccc(I)c1
ring closure, isolated yield (triazole bond, 19-membered ring, 4 steps): 22.1%

Cc1ccc(S(=O)(=O)n2ccc3c4c(c(F)cc32)Sc2ccc(F)c(c2)-c2ccn(n2)C(c2cccc(Br)c2)CCOCC(C)(C)c2cn(nn2)C4)cc1 (centres unmarked)
ring closure, isolated yield (from C#CC(C)(C)COCCC(c1cccc(Br)c1)n1ccc(-c2cc(Sc3c(F)cc4c(ccn4S(=O)(=O)c4ccc(C)cc4)c3CN=[N+]=[N-])ccc2F)n1, triazole bond, 19-membered ring, Cu(MeCN)4BF4 (0.1 eq)/TBTA (0.1 eq), DCM, 43.4 mM, 45.0 °C): 61%

CCOC(=O)CCc1cccc(C2CC/C=C/CC(C)(C)c3cnn(c3)Cc3c(c(F)cc4c3ccn4S(=O)(=O)c3ccc(C)cc3)Oc3ccc(F)c(c3)-c3ccn2n3)c1 (centres unmarked)
ring closure, isolated yield (from C=CCCC(c1cccc(CCC(=O)OCC)c1)n1ccc(-c2cc(Oc3c(F)cc4c(ccn4S(=O)(=O)c4ccc(C)cc4)c3Cn3cc(C(C)(C)CC=C)cn3)ccc2F)n1, rcm bond, 20-membered ring, Hoveyda-Grubbs II, toluene, 1.26 mM, 60.0 °C, 12.0 h): 66%

C#CC(C)(C)CCCCC(C)(c1cccc(CCC(=O)OC)c1)c1csc(-c2cc(Oc3c(F)cc4[nH]ccc4c3CN=[N+]=[N-])ccc2F)n1 (centres unmarked)
ring closure, isolated yield (the molecule shown is the open-chain precursor, triazole bond, 19-membered ring): 77%

Cc1ccc(S(=O)(=O)n2ccc3c4c(c(F)cc32)Sc2cccc(c2)-c2ccn(n2)C(c2cccc(Br)c2)CCCCC(C)(C)c2cn(nn2)C4)cc1 (centres unmarked)
ring closure, isolated yield (triazole bond, 19-membered ring, 3 steps): 22.5%

Mixture of 21-(benzenesulfonyl)-6-(3-bromophenyl)-24,30-difluoro-10,10-dimethyl-9,26-dioxa-5,12,13,21,33-pentazahexacyclo[25.3.1.12,5.112,15.017,25.018,22]tritriaconta-1(31),2(33),3,13,15(32),17,19,22,24,27,29-undecaene and 22-(benzenesulfonyl)-7-(3-bromophenyl)-25,31-difluoro-11,11-dimethyl-10,27-dioxa-5,6,13,14,22-pentazahexacyclo[26.3.1.113,16.02,6.018,26.019,23]tritriaconta-1(32),2,4,14,16(33),18,20,23,25,28,30-undecaene
ring closure, isolated yield (other bond, 19-membered ring, CMBP, 1,4-dioxane, 24.7 mM, 145.0 °C): 55%

CCOC(=O)C(C)Cc1cccc(C2(C)CCC(C)(C)COc3ccn(n3)Cc3c(c(F)cc4c3ccn4S(=O)(=O)c3ccccc3)Oc3ccc(F)c(c3)-c3nc2nn3C)c1 (single isomer, unassigned; isomer 2)
ring closure, isolated yield (from CCOC(=O)C(C)Cc1cccc(C(C)(CCC(C)(C)COc2cc[nH]n2)c2nc(-c3cc(Oc4c(F)cc5c(ccn5S(=O)(=O)c5ccccc5)c4CO)ccc3F)n(C)n2)c1, other bond, 18-membered ring, CMBP, toluene, 13.6 mM, 150.0 °C, 1.0 h): 21%

Cn1nc2nc1-c1cc(ccc1F)Sc1c(F)cc3c(ccn3S(=O)(=O)c3ccccc3)c1Cn1cc(cn1)C(C)(C)C/C=C\CC2(C)c1cccc(Br)c1 (centres unmarked)
ring closure, isolated yield (rcm bond, 19-membered ring): 79%
